In article PMC11335985, “Radiosynthesis and preclinical evaluation of a ^68Ga-labeled tetrahydroisoquinoline-based ligand for PET imaging of C-X-C chemokine receptor type 4 in an animal model of glioblastoma” (EJNMMI Radiopharmacy and Chemistry, 2024):

Target: T1, CXCR4 (Homo sapiens, UniProt P61073)
T1 construct: full-length endogenous receptor on intact Jurkat T cells, untagged
Assay: inhibition of CXCL12-AF647 binding to intact Jurkat cells, flow cytometry
Type: cell-based
Settings: competition with 2.9 nM CXCL12-AF647; HBSS, 20 mM HEPES, 0.2% BSA, pH 7.4, RT; 15 min preincubation, 30 min with tracer; n = 3; chelator without gallium
From the text: inhibition of CXCL12-AF647 binding to intact Jurkat cells, flow cytometry on CXCR4

T1 sequence (P61073 whole entry): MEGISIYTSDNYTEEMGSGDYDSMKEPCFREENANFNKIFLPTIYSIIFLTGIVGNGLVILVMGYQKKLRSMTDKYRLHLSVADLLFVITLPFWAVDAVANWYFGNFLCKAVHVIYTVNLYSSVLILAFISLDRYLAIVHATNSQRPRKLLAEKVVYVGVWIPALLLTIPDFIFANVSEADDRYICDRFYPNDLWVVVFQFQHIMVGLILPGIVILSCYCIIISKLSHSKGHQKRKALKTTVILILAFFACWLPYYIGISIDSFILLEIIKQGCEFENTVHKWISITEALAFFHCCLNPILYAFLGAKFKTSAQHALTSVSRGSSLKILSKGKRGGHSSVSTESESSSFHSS

O=C(O)CN1CCN(CC(=O)O)CCN(C(CCC(=O)NCc2ccc(NC(=S)NCCCCN(C[C@H]3Cc4ccccc4CN3)[C@H]3CCCc4cccnc43)cc2)C(=O)O)CCN(CC(=O)O)CC1 (stereo partly shown) [TD-01]
IC50: 36.5 ± 1.4 nM
